Assays:
Format in all cases: cell-based
human PC-3 cells = assay: Sulforhodamine B (SRB) assay, cytotoxicity against PC-3 cells; settings: SRB assay, PC-3 cells
Method in brief: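 PC-3 cells in 5% FBS were fixed with 10% TCA after 24 h as T0, then treated with compound for 48 h, fixed, stained with 0.4% SRB in 1% acetic acid and solubilized in 10 mmol/L Trizma base. Absorbance was read at 515 nm. GI% = 100−[(Tx−T0)/(C−T0)]×100, and IC50 is the concentration halving total protein.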

[1] = tested on: 55 to 60 cancer cell lines; settings: 10 μM
HL-60 (TB) = assay: cells; settings: HL-60 (TB) (Leukemia), 10 μM, 48 hours
K-562 = assay: cells
MOLT-4 = assay: cells
SR = assay: cells
NCI-H23 = assay: cells
NCI-H322M = assay: cells
NCI-H460 = assay: cells
HCT-116 = assay: cells
HCT-15 = assay: cells
HT29 = assay: cells
KM12 = assay: cells
SW-620 = assay: cells
SF-268 = assay: cells
SF-295 = assay: cells; settings: CNS Cancer SF-295
U251 = assay: cells; settings: CNS Cancer U251
LOX IMVI = assay: cells; settings: Melanoma LOX IMV1
M14 = assay: cells
SK-MEL-28 = assay: cells
IGROV1 = assay: cells
OVCAR-3 = assay: cells; settings: OVCAR-3 (Ovarian Cancer), 10 μM, 48 hours
OVCAR-4 = assay: cells
SK-OV-3 = assay: cells
A498 = assay: cells
ACHN = assay: cells
SN12C = assay: cells
TK-10 = assay: cells
PC-3 = assay: cells
BT-549 = assay: cells
[2] = Homo sapiens, K562, Leukemia K-562
[3] = Homo sapiens, Non-Small Cell Lung Cancer NCI-H23
[4] = Homo sapiens, Colon Cancer HCT-116
[5] = Homo sapiens, Colon Cancer SW-620
[6] = Homo sapiens, CNS Cancer SF-268

CCN(CC)CCNc1nc2ccccc2c2c1-c1ccc(Cl)cc1C2=O [SJ-3, 6-(2-(Diethylamino)ethylamino)-9-chloro-11H-indeno[1,2-c]quinolin-11-one]
Toxicity (%) (human PC-3 cells): 55.6%
GI % (10 μM) (human PC-3 cells; 10 μM): 100%
Mean (mean growth percentage of the tested cancer cell lines) ([1]; 48 hours, all tested cell lines): 62.4%
cytotoxicity in the first stage (in words) ([1]; basis for selection for the five-dose test): potential cytotoxicity
growth percentage (HL-60 (TB)): 94.33%
GI50 (K-562; [2]): 8.75 µM
LC50 (lethal concentration, 50% cell kill) (K-562; [2]): 7.46 µM
growth percentage (K-562; K-562 (Leukemia), 10 μM, 48 hours): 45.29%
TGI (K-562; Leukemia K-562): 3.61 µM
GI50 (MOLT-4; Homo sapiens, Leukemia MOLT-4): 6.24 µM
LC50 (concentration killing 50% of cells) (MOLT-4; Homo sapiens, Leukemia MOLT-4): 7.91 µM
TGI (MOLT-4; Leukemia MOLT-4): 3.43 µM
growth percentage (MOLT-4; MOLT-4 (Leukemia), 10 μM, 48 hours): 34.63%
GI50 (SR; Homo sapiens, Leukemia SR): 5.05 µM
LC50 (50% lethal concentration) (SR; Homo sapiens, Leukemia SR): 11.6 µM
TGI (SR; Leukemia SR): 4.06 µM
growth percentage (SR; SR (Leukemia), 10 μM, 48 hours): 46.92%
GI50 (NCI-H23; [3]): 2.63 µM
LC50 (NCI-H23; [3]): 8.35 µM
growth percentage (NCI-H23; NCI-H23 (Non-Small Cell Lung Cancer), 10 μM, 48 hours): 80.63%
TGI (NCI-H23; Non-Small Cell Lung Cancer NCI-H23): 4.00 µM
GI50 (NCI-H322M; Homo sapiens, Non-Small Cell Lung Cancer NCI-H322M): 34.5 µM
CC50 (NCI-H322M; Homo sapiens, Non-Small Cell Lung Cancer NCI-H322M, read-out: LC50 (the source's name)): 36.2 µM
growth percentage (NCI-H322M; NCI-H322M (Non-Small Cell Lung Cancer), 10 μM, 48 hours): 69.83%
TGI (NCI-H322M; Non-Small Cell Lung Cancer NCI-H322M): 13.10 µM
GI50 (NCI-H460; Homo sapiens, Non-Small Cell Lung Cancer NCI-460): 5.15 µM
CC50 (NCI-H460; Homo sapiens, Non-Small Cell Lung Cancer NCI-460, read-out: LC50 (the source's name)): 6.74 µM
growth percentage (NCI-H460; NCI-H460 (Non-Small Cell Lung Cancer), 10 μM, 48 hours): 25.15%
TGI (NCI-H460; Non-Small Cell Lung Cancer NCI-460): 3.20 µM
TGI (HCT-116; Colon Cancer HCT-116): 3.19 µM
growth percentage (HCT-116; HCT-116 (Colon Cancer), 10 μM, 48 hours): 36.96%
GI50 (HCT-116; [4]): 6.19 µM
LC50 (50% lethal concentration) (HCT-116; [4]): 6.06 µM
TGI (HCT-15; Colon Cancer HCT-15): 3.51 µM
growth percentage (HCT-15; HCT-15 (Colon Cancer), 10 μM, 48 hours): 50.38%
GI50 (HCT-15; Homo sapiens, Colon Cancer HCT-15): 4.37 µM
CC50 (HCT-15; Homo sapiens, Colon Cancer HCT-15, read-out: LC50 (the source's name)): 7.5 µM
TGI (HT29; Colon Cancer HT29): 3.16 µM
growth percentage (HT29; HT29 (Colon Cancer), 10 μM, 48 hours): 9.75%
GI50 (HT29; Homo sapiens, HT-29, Colon Cancer HT29): 4.23 µM
CC50 (HT29; Homo sapiens, HT-29, Colon Cancer HT29, read-out: LC50 (the source's name)): 6.28 µM
TGI (KM12; Colon Cancer KM12): 3.11 µM
GI50 (KM12; Homo sapiens, Colon Cancer KM12): 6.48 µM
CC50 (KM12; Homo sapiens, Colon Cancer KM12, read-out: LC50 (the source's name)): 5.96 µM
growth percentage (KM12; KM12 (Colon Cancer), 10 μM, 48 hours): 53.42%
TGI (SW-620; Colon Cancer SW-620): 3.06 µM
GI50 (SW-620; [5]): 5.12 µM
LC50 (concentration killing 50% of cells) (SW-620; [5]): 6.67 µM
growth percentage (SW-620; SW-620 (Colon Cancer), 10 μM, 48 hours): 43.72%
TGI (SF-268; CNS Cancer SF-268): 3.27 µM
GI50 (SF-268; [6]): 17.7 µM
LC50 (SF-268; [6]): 6.52 µM
growth percentage (SF-268; SF-268 (CNS Cancer), 10 μM, 48 hours): 65.88%
TGI (SF-295): 4.60 µM
GI50 (SF-295; Homo sapiens): 17.8 µM
LC50 (concentration killing 50% of cells) (SF-295; Homo sapiens): 9.85 µM
TGI (U251): 3.06 µM
GI50 (U251; Homo sapiens, U-251): 11.4 µM
LC50 (concentration killing 50% of cells) (U251; Homo sapiens, U-251): 5.88 µM
GI50 (LOX IMVI; Homo sapiens, LOX IMVI): 6.04 µM
CC50 (LOX IMVI; Homo sapiens, LOX IMVI, read-out: LC50 (the source's name)): 6.02 µM
TGI (LOX IMVI): 3.04 µM
GI50 (M14; Homo sapiens, Melanoma M14): 16.5 µM
CC50 (M14; Homo sapiens, Melanoma M14, read-out: LC50 (the source's name)): 19.3 µM
growth percentage (M14; M14 (Melanoma), 10 μM, 48 hours): 76.44%
TGI (M14; Melanoma M14): 5.48 µM
GI50 (SK-MEL-28; Homo sapiens, Melanoma SK-MEL-28): 6 µM
CC50 (SK-MEL-28; Homo sapiens, Melanoma SK-MEL-28, read-out: LC50 (the source's name)): 5.83 µM
TGI (SK-MEL-28; Melanoma SK-MEL-28): 3.21 µM
growth percentage (SK-MEL-28; SK-MEL-28 (Melanoma), 10 μM, 48 hours): 87.40%
GI50 (IGROV1; Homo sapiens, IGROV-1, Ovarian Cancer IGROV1): 11.2 µM
CC50 (IGROV1; Homo sapiens, IGROV-1, Ovarian Cancer IGROV1, read-out: LC50 (the source's name)): 7.82 µM
growth percentage (IGROV1; IGROV1 (Ovarian Cancer), 10 μM, 48 hours): 43.43%
TGI (IGROV1; Ovarian Cancer IGROV1): 3.62 µM
growth percentage (OVCAR-3): 73.13%
GI50 (OVCAR-4; Homo sapiens, Ovarian Cancer OVCAR-4): 2.99 µM
CC50 (OVCAR-4; Homo sapiens, Ovarian Cancer OVCAR-4, read-out: LC50 (the source's name)): 5.68 µM
growth percentage (OVCAR-4; OVCAR-4 (Ovarian Cancer), 10 μM, 48 hours): 52.50%
TGI (OVCAR-4; Ovarian Cancer OVCAR-4): 2.79 µM
GI50 (SK-OV-3; Homo sapiens, Ovarian Cancer SK-OV-3): 35.9 µM
CC50 (SK-OV-3; Homo sapiens, Ovarian Cancer SK-OV-3, read-out: LC50 (the source's name)): 17.2 µM
TGI (SK-OV-3; Ovarian Cancer SK-OV-3): 5.57 µM
growth percentage (SK-OV-3; SK-OV-3 (Ovarian Cancer), 10 μM, 48 hours): 84.20%
growth percentage (A498; A498 (Renal Cancer), 10 μM, 48 hours): 88.98%
GI50 (A498; Homo sapiens, Renal Cancer A498): 8.76 µM
CC50 (A498; Homo sapiens, Renal Cancer A498, read-out: LC50 (the source's name)): 50.8 µM
TGI (A498; Renal Cancer A498): 1.78 µM
growth percentage (ACHN; ACHN (Renal Cancer), 10 μM, 48 hours): 55.86%
GI50 (ACHN; Homo sapiens, Renal Cancer ACHN): 6.44 µM
CC50 (ACHN; Homo sapiens, Renal Cancer ACHN, read-out: LC50 (the source's name)): 5.89 µM
TGI (ACHN; Renal Cancer ACHN): 3.04 µM
GI50 (SN12C; Homo sapiens, Renal Cancer SN12C): 4.12 µM
CC50 (SN12C; Homo sapiens, Renal Cancer SN12C, read-out: LC50 (the source's name)): 6.16 µM
TGI (SN12C; Renal Cancer SN12C): 2.87 µM
growth percentage (SN12C; SN12C (Renal Cancer), 10 μM, 48 hours): 61.60%
GI50 (TK-10; Homo sapiens, Renal Cancer TK-10): 24.6 µM
CC50 (TK-10; Homo sapiens, Renal Cancer TK-10, read-out: LC50 (the source's name)): 6.38 µM
TGI (TK-10; Renal Cancer TK-10): 3.70 µM
growth percentage (TK-10; TK-10 (Renal Cancer), 10 μM, 48 hours): 95.55%
GI50 (PC-3; Homo sapiens, Prostate Cancer PC-3): 12.5 µM
CC50 (PC-3; Homo sapiens, Prostate Cancer PC-3, read-out: LC50 (the source's name)): 8.98 µM
growth percentage (PC-3; PC-3 (Prostate Cancer), 10 μM, 48 hours): 41.01%
TGI (PC-3; Prostate Cancer PC-3): 3.82 µM
growth percentage (BT-549; BT-549 (Breast Cancer), 10 μM, 48 hours): 87.48%
TGI (BT-549; Breast Cancer BT-549): 9.50 µM
GI50 (BT-549; Homo sapiens, Breast Cancer BT-549): 32.5 µM
CC50 (BT-549; Homo sapiens, Breast Cancer BT-549, read-out: LC50 (the source's name)): 45.5 µM
